Series [1] addresses T1, hGPR55 (Homo sapiens, UniProt Q9Y2T6).
T1 construct: host or cells: CHO-K1
Description: p-ERK1/2 activation, in-cell Western, CHO cells expressing hGPR55. The class given is cell-based. The settings on record: for Emax, p-ERK1/2 activation: fold over vehicle, CHO cells expressing hGPR55, 30 min, mean ± SEM. The procedure: Downstream signaling by hGPR55 was investigated by quantifying p-ERK activation in the in-cell Western assay.
Cells were seeded at approximately 2000 cells/well in 96-well plates and treated with 0.1–10 μM compounds for 30 min and were then fixed for 10 min at room temperature with 4% paraformaldehyde. Cells were washed 3 times with 100 μL 1X PBS for 5 min each. Cells were incubated with blocking solution (PBS, 20% Odyssey blocking buffer, and 0.1% TritonX-100) for 1 h at room temperature. Next, cells were exposed to primary antibodies for p-ERK1/2(T202/Y204) (mouse monoclonal IgG, Cat# sc-136521) or ERK1/2 (rabbit polyclonal IgG, Cat# sc-292838) (Santa Cruz Biotechnology, Santa Cruz, CA) diluted (1:200) in blocking solution overnight at 4 °C. Cells were washed 3 times with 100 μL PBS for 5 min each. Cells were exposed to the secondary antibodies goat polyclonal anti-rabbit IgG IR^Dye800-conjugated antibody diluted 1:500 (Li-Cor Biosciences, IgG, Cat# P/S 926-32210, RRID AB-2687825, lot# C50113-18) and goat polyclonal anti-mouse IgG IR^Dye680-conjugated antibody diluted 1:500 (Li-Cor Biosciences, IgG, Cat# P/N 925-68070, RRID AB-2651128, lot# C50113-17) for 1 h at room temperature. Cells were washed 3 times with 100 μL PBS for 5 min each. Analyses were conducted using the Odyssey Imaging system and software (version 3.0; Li-Cor).
(§1) Data for p-ERK in-cell westerns are shown as fold over vehicle response (i.e., 1). Estimates of Ki, EC50 and Emax were determined using non-linear regression (3 parameters) (GraphPad, Prism, v. 9.0). p < 0.05 was determined to be significant.

Series [2] addresses T1, hGPR55. Description: [3H]CP55,940 radioligand displacement assay on hGPR55 CHO cell membranes. It is filed as binding. The procedure: (§2) Assays were performed as described previously and summarized here. […] Binding was initiated by the addition of transfected hGPR55, hCB1R or hCB2R CHO cell membranes (25 μg protein per well). All assays were performed at 37°C for 120 min prior to quenching with ice-cold Tris binding buffer followed by vacuum filtration using a 24-well sampling manifold (Brandel Cell Harvester; Brandel, Inc., Gaithersburg, MD, USA) and Brandel GF/B filters. Each reaction well was washed six times with 1.2 mL aliquots of Tris-binding buffer. The filters were air-dried overnight and then placed in 5 mL of scintillation fluid (Ultima Gold XR, Perkin Elmer, Inc., Waltham, MA, USA). Liquid scintillation spectrometry was used for quantifying radioactivity.
as §1

The target of another series is T2, human CB1R (Homo sapiens, UniProt P21554).
T2 construct: HitHunter) 95-0071C2; host or cells: CHO-K1
T2 sequence (P21554 whole entry): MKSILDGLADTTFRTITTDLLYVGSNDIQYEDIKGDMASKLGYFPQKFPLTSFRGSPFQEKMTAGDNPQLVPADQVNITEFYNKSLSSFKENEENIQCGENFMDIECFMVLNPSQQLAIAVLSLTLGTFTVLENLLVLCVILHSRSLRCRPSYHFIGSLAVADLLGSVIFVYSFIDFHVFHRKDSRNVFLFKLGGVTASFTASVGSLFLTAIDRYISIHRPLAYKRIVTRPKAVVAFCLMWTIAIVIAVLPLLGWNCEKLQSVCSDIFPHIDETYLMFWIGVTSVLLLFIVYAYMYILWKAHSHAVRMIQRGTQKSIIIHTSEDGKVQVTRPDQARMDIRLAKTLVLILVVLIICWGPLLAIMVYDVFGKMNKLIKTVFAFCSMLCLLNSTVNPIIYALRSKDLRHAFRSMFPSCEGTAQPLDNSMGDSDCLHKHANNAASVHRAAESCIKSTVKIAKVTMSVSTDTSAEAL
In words: [3H]CP55,940 radioligand displacement assay on hCB1R CHO cell membranes. The class given is binding. The procedure: as §2, §1
On the technique in general: Loss of bound radioactivity is the signal in a displacement assay; it reports binding, not function.

The next series concerns the target T3, human CB2R (Homo sapiens, UniProt P34972).
T3 construct: host or cells: CHO-K1
In words: [3H]CP55,940 radioligand displacement assay on hCB2R CHO cell membranes. It is filed as binding. The procedure: as §2, §1

Setting [3] is: CHO cells expressing hGPR55, 30 min treatment, mean (95% CI), n = 6, read-out: EC50 95% CI, p-ERK1/2 activation.

Like-named read-outs stand apart in the source and are kept apart here.

T3 sequence (P34972 whole entry): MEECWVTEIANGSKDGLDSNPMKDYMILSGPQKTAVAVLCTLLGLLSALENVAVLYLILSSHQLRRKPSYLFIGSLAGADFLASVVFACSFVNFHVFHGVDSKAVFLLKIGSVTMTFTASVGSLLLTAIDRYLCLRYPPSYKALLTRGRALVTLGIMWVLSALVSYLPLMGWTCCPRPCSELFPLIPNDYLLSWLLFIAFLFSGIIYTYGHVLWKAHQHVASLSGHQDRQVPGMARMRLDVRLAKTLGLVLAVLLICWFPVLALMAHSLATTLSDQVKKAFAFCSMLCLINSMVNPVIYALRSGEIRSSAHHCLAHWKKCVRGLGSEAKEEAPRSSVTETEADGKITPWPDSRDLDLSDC
T1 sequence (Q9Y2T6 whole entry): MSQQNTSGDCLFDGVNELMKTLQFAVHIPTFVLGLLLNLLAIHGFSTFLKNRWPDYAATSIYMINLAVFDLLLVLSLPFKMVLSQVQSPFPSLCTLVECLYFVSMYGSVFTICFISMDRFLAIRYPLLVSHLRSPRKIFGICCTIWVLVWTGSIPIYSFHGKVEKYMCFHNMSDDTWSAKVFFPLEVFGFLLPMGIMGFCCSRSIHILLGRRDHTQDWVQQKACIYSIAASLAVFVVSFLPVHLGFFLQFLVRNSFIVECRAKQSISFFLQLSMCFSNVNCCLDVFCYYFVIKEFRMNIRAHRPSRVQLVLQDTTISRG

What is called Ki is the dissociation constant of the complex between target and ligand, obtained from inhibition or displacement. Compound `CCCCCCC(C)(C)c1ccc([C@@H]2C[C@H](O)CC[C@H]2CCCO)c(O)c1` [CP55,940, reference compound] came in with an EC50 at hGPR55 [1] of 4.2 nM. The compound also had a Ki at hGPR55 [2] of 13 nM.
By melting point is commonly meant the temperature, or range, at which the solid turns liquid. Consider `CCCCc1cc(OC)c2cc(Cc3ccccc3OC)c(=O)[nH]c2c1` [Compound 1, 7-n-Butyl-5-methoxy-3-(2-methoxybenzyl)quinolin-2(1H)-one], for which the melting point lay within 208 to 210 °C. Further, the EC50 at hGPR55 [1] (setting [3]) was 6.4 nM. The “Emax, p-ERK1/2 activation” value at hGPR55 [1] (n = 6) was 1.5 ± 0.06 Fold. This compound showed a Ki at human CB1R of over 10000 nM. Further, the Ki at hGPR55 [2] (read-out: Ki hGPR55) was 14 nM. Besides, the Ki at human CB2R was over 10000 nM.
The compound `CCCCc1cc(OC)c2cc(Cc3ccccc3OC)c(=O)n(C)c2c1` [Compound 2, 7-n-Butyl-5-methoxy-3-(2-methoxybenzyl)-1-methylquinolin-2(1H)-one] yielded a melting point of 78 to 80 °C. In addition, at hGPR55 [1] (setting [3]), the EC50 was found to be 1.1 nM. For the same compound, the “Emax, p-ERK1/2 activation” value on hGPR55 [1] (n = 6) is reported as 1.4 ± 0.07 Fold. The Ki on human CB1R is over 10000 nM. Also, the Ki at hGPR55 [2] (read-out: Ki hGPR55) worked out at 1.2 nM. This compound returned a Ki at human CB2R of 6.9 nM.
In the case of `CCCCc1cc(O)c2cc(Cc3ccccc3O)c(=O)[nH]c2c1` [Compound 3, 7-n-Butyl-5-hydroxy-3-(2-hydroxybenzyl)quinolin-2(1H)-one], the melting point lay in the range of 252 to 254 °C. For the same compound, at hGPR55 [1] (setting [3]), the EC50 turned out to be 1.4 nM. Also, the “Emax, p-ERK1/2 activation” value at hGPR55 [1] (n = 6) was 1.2 ± 0.04 Fold. In addition, the affinity at human CB1R, expressed as Ki, was 5.1 nM. For the same compound, the Ki on hGPR55 [2] (read-out: Ki hGPR55) was determined as 6.2 nM. The compound further had a Ki at human CB2R of over 10000 nM.
Consider `CCCCc1cc(O)c2cc(Cc3ccccc3O)c(=O)n(C)c2c1` [Compound 4, 7-n-Butyl-5-hydroxy-3-(2-hydroxybenzyl)-1-methylquinolin-2(1H)-one], for which the melting point was in the range of 223 to 225 °C. For the same compound, the EC50 at hGPR55 [1] (setting [3]) turned out to be 11 nM. Also, the “Emax, p-ERK1/2 activation” value at hGPR55 [1] (n = 6) came out at 1.3 ± 0.03 Fold. Also, the Ki at human CB1R worked out at 29 nM. In addition, the Ki at hGPR55 [2] (read-out: Ki hGPR55) came out at 7.1 nM. For the same compound, the Ki at human CB2R was determined as 7.9 nM.
Consider `C=C(C)[C@@H]1CCC(C)=C[C@H]1c1c(C)cc(O)cc1O` [Compound O-1602, O-1602, reference compound], for which the EC50 at hGPR55 [1] (setting [3]) stood at 61 nM. Moreover, the “Emax, p-ERK1/2 activation” value on hGPR55 [1] (n = 6) worked out at 1.3 ± 0.03 Fold. Moreover, the Ki at hGPR55 [2] (read-out: Ki hGPR55) came to 10 nM.

For the origin of these results see PMC9320067, “Novel Potent and Selective Agonists of the GPR55 Receptor Based on the 3-Benzylquinolin-2(1H)-One Scaffold” (Pharmaceuticals, 2022).
